From patent US10647680B2, “Urea compound, preparation method therefor and medical use thereof” (Ancureall Pharmaceutical (Shanghai) Co., Ltd., priority 2016, dated 2020)
Structures can show the parent of a compound that is named as a salt. Where two headings read alike, the source gives them in different places.

Legend:
Solubility test = format: physicochemical; settings: in water at 25° C.±2° C.
Procedure: The fine powder of the test sample was weighed into an appropriate amount of water at 25° C.±2° C. and shaken vigorously for 30 seconds every 5 minutes so that it was fully dissolved within 30 minutes. If no visible solute particles were observed, it was considered completely dissolved. “Readily soluble” means that 1 g of the test sample could be dissolved in 1-10 ml of water; and “soluble” means that 1 g of the test sample could be dissolved in 10-30 ml of water; “slightly soluble” means that 1 g of the test sample could be dissolved in 30-100 ml of water; and “sparingly soluble” means that 1 g of the test sample could be dissolved in 100-1,000 ml of water; “nearly insoluble or insoluble” means that 1 g of the test sample could not be completely dissolved in 10,000 ml of water.

[1] = Stability test: high temperature test (60° C.); format: physicochemical; settings: exposed at 60° C. for 10 days, HPLC
Procedure: The test samples were placed into an integrated drug stability test chamber (YSEI) in an exposed way at 60° C. for 10 days. Samples were taken on the 5th and 10th days and tested according to the drug stability test indices.
(§1) An appropriate amount of test samples was taken and dissolved in acetonitrile-water (1:1), and quantitatively diluted to a solution of about 0.3 mg/ml. 20 ul of solution was injected into a liquid chromatograph (Agilent 1260 Infinity), the chromatogram was then recorded and calculated according to the percentage area method. The mobile phase was a phosphate buffer and acetonitrile aqueous solution, and then a gradient elution was carried out.

[2] = Stability test: intense light test (4500LX); format: physicochemical; settings: 4500LX±500LX light for 10 days, HPLC
Procedure: The test samples were placed into an integrated drug stability test chamber (YSEI) in an exposed way under 4500LX±500LX light for 10 days. Samples were taken on the 5th and 10th days and tested according to the drug stability test indices.
as §1

[3] = Stability test: high humidity test (90%); format: physicochemical; settings: 25° C., relative humidity 90%±5%, 10 days, HPLC
Procedure: The test samples were placed into an integrated drug stability test chamber (YSEI) in an exposed way at 25° C. and relative humidity of 90%±5% for 10 days. Samples were taken on the 5th and 10th days and tested according to the drug stability test indices.
as §1

P-gp = assay: Bidirectional transmembrane transport and P-gp efflux in Caco-2 monolayer cell model; format: in vitro ADME; settings: human, Caco-2, pH 7.4; Concentration 10, Inhibitor − (without P-gp inhibitor GF120918); read-out: Efflux Ratio Papp (B→A)/Papp (A→B)
Procedure: (§2) The Caco-2 cell transport experiment was performed using compound 77 of the present invention as a representative example.
(§3) Main procedure: Caco-2 cells (ATCC, HTB-37) were cultured in high-glucose DMEM culture medium (Hyclone) containing 10% fetal calf serum (GIBCO) and penicillin-streptomycin (100 units/mL each) (Sigma). Cells were cultured at 37° C. in an incubator containing 5% CO2. In the transport experiment, Caco-2 cells were inoculated on a filter of a 12-well Transwell plate at a density of 2×10^5 cells/well (Coming Costar, catalog #3401, 1.12 cm^2, 0.4 um of pore size). After inoculation, the Caco-2 cells would form intact cell monolayers after 21 days, including P-gp efflux transporter expression and transepithelial cell resistance (TEER) formation. During the period, the culture medium was replaced once every other day. The volume of culture medium at the transwell membrane Apical Side (A) and Basolateral Side (B) were 0.5 mL and 1.5 mL, respectively. Before the transport experiment (day 21), the preheated HBSS buffer (137 mM NaCl, 4.17 mM NaHCO3, 0.34 mM Na2HPO4, 5.37 mM KCl, 0.44 mM KH2PO4, 1.26 mM CaCl2, 0.49 mM MgCl2, 0.41 mM MgSO4, 5.55 Mm D-Glucose, 10 mM HEPES, pH 7.4) was used firstly to wash Caco-2 cell monolayers for three times, and placed to at 37° C. for incubation for 30 minutes, then TEER values were determined using a cell resistometer (Millicell-ERS2) to confirm the integrity and compactness of the cell monolayers. When the HBSS buffer solution on the transmembrane A-side or B-side was replaced with the test compound, the transport experiment was started.
(§4) Finally, after incubation at 37° C. for 2 hours, the transport experiment was terminated and 50 uL of sample solution was taken from both sides of the Transwell filter membrane separately and added to 100 μL of acetonitrile comprising internal standard compound and mixed well, then centrifuged at 13000 rpm, 4° C. for 10 min, and finally 10 μL (or a specific volume) of supernatant was used for LC-MS/MS sample analysis.
(§5) For each compound, transport experiments in the A-B and B-A directions had three replicates, i.e. n=3.
(§6) LC-MS/MS Sample Analysis: The high performance liquid chromatography (HPLC) system used in this research consisted of two pumps (Shimadzu LC-20AD) and an autosampler (Shimadzu SIL-20AC). The HPLC system was connected in series with an API 4000 triple quadrupole mass spectrometer (Applied Biosystems). The API 4000 triple quadrupole mass spectrometer was equipped with an electrospray ionization (ESI) source. Ultrapurified nitrogen was used as curtain gas, GAS1, GAS2, and collision gas, at flow rates of 20 L/h, 55 L/h, 65 L/h, and 6 L/hr, respectively. The atomization temperature of the ion source was set to 500° C. Data was collected using the software Analyst 1.5.
(§7) Data analysis: The apparent permeability coefficient (Papp) can be calculated by the rate at which a compound permeates the monolayer of Caco-2 cells. Its value is related to the absorption of the compound in vivo. After concentrations at A side and B side were determined by LC-MS/MS, the Papp value in the A-B or B-A direction was calculated according to the following formula: Papp(A→B) or Papp(B→A)=(dQ/dt)/(A*C0)=(C2h*V)/(t*π2*C0)
(§8) In the above formula, dQ/dt is the permeation rate, i.e. the amount of compound that permeated in the dt time, C0 is the initial concentration of drug on the administration side, and A is the surface area of the cell monolayer, i.e. the membrane area.
(§9) After obtaining the Papp (A→B) and Papp (B→A) values of the compound, the Efflux Ratio (ER) of the compound could be calculated by the following formula: Efflux Ratio(ER)=Papp(B−A)/Papp(A−B).
(§10) When the ratio of efflux was >2, the compound could be considered as the substrate of the efflux transporter.

[4] = as above; format: in vitro ADME; settings: human
Procedure: as §2, §3, §4, §5, §6, §7, §8, §9, §10

rat plasma protein = assay: Binding rate to plasma protein of rats (dialysis method); format: in vitro ADME; settings: dialysis, 4 h, 37° C.; test substance 2 uM, positive control 1 uM
Procedure: The binding rate of compound 77 of the present invention to plasma protein at a rat plasma concentration of 2 uM was evaluated by dialysis method.
Procedure: The DMSO stock solution of compound 77 (10 mM) or the positive control propranolol (USP) was added to 500 uL of blank plasma. The final concentration of test substance in the plasma was 2 uM, and the final concentration of the positive control was 1 uM, in triplicate. 300 uL of prepared plasma samples was added to the plasma chamber, and 500 uL of dialysis buffer was added to the buffer chamber (phosphate buffer solution PBS contained 100 mM sodium phosphate and 150 mM sodium chloride, PH 7.2), sealed, and incubated for 4 h while shaking at 100 rpm, 37° C. After incubation, 50 uL sample was taken from the plasma chamber and buffer chamber, and 50 uL of PBS was added to plasma chamber samples, and 50 uL of blank plasma was added to the buffer chamber samples. Immediately, 3-fold methanol solution containing internal standard was added, to precipitate plasma protein. After centrifugation, the supernatant was taken for LC/MS/MS analysis. The plasma protein binding rate was calculated according to the following formula: % free state=(peak area ratio in the buffer chamber/the peak area ratio in the plasma chamber)×%, % binding state=100%−% free state.

What does the source list for `CC(C)(C)c1cc(NC(=O)Nc2ccc(-n3cnc4cc(OCCN5CCOCC5)ccc43)cc2)no1` [Compound 16 Hydrochloride, 1-(5-tert-butyl-isoxazol-3-yl)-3-{4-[5-(2-morpholin-4-yl-ethoxyl)-benzimidazol-1-yl]-phenyl}-urea]?
Solubility (Solubility test; listed as 16 Hydrochloride): soluble (“soluble” means that 1 g of the test sample could be dissolved in 10-30 ml of water); High temperature (60° C.) [1]: stable; Lighting (4500 LX) [2]: stable; High Humidity (90%) [3]: stable

Which results are given for `COc1ccc2c(c1)ncn2-c1ccc(NC(=O)Nc2cc(C(C)(C)C)n[nH]2)cc1` [Compound 71 Mesylate, 1-(5-tert-butyl-2H-pyrazol-3-yl)-3-[4-(5-methoxyl-benzimidazol-1-yl)-phenyl]-urea]?
Solubility (Solubility test; listed as 71 Mesylate): soluble (“soluble” means that 1 g of the test sample could be dissolved in 10-30 ml of water); High temperature (60° C.) [1]: stable; Lighting (4500 LX) [2]: stable; High Humidity (90%) [3]: stable

Which efflux ratio at 2 h (P-gp) does the source give for `C[C@H]1O[C@@H](O[C@H]2[C@@H](O)C[C@H](O[C@H]3[C@@H](O)C[C@H](O[C@H]4CC[C@@]5(C)[C@H](CC[C@@H]6[C@@H]5C[C@@H](O)[C@]5(C)[C@@H](C7=CC(=O)OC7)CC[C@]65O)C4)O[C@@H]3C)O[C@@H]2C)C[C@H](O)[C@@H]1O` [Digoxin] here?
The efflux ratio at 2 h was 322.

What about the Papp A→B at 2 h ([4]; Caco-2, pH 7.4, Caco-2 monolayer cell model, transmembrane permeability, read-out: Papp(A→B) value (conclusions under the table)) of the same compound?
The Papp A→B at 2 h was < 1 ×10⁻⁶ cm/s.

What about the Papp B→A at 2 h ([4]; Caco-2, pH 7.4, Concentration 10, Inhibitor − (without P-gp inhibitor GF120918)) of the same compound?
Its Papp B→A at 2 h is 20.4 ×10⁻⁶ cm/s.

What about the Papp A→B at 2 h ([4]; Caco-2, pH 7.4, Concentration 10, Inhibitor − (without P-gp inhibitor GF120918), read-out: Papp (A→B)) of the same compound?
Its Papp A→B at 2 h is 0.06 ×10⁻⁶ cm/s.

With `CC(C)NCC(O)COc1cccc2ccccc12` (stereo not shown) [propranolol, reference compound] as the compound, how does the “binding rate to the rat plasma protein” value (rat plasma protein) read?
Its value is 90.11%.
